Active and inactive are the calls of the source.
Columns and labels:
[1] = test system: Streptococcus sp. 'group A'; assay: Streptococcus pyogenes SK(-)GAS viability under kanamycin – luminescence, BacTiterGlo, confirmation, counter-screen for streptokinase expression inhibitor project, dose response (AID 1900); type: functional, organism-based
cells = type: functional
[2] = THP-1 cell cytotoxicity, dose response, cytotoxicity control for non-replicating M. tuberculosis project (AID 489025); type: functional
Streptokinase A = target: T1, Streptokinase A (Streptococcus pyogenes serotype M1, UniProt P10520); assay: viability-normalized secreted streptokinase activity reduction – plasminogen activation absorbance, OD405, dose response (AID 1914); type: functional, Streptococcus pyogenes M1 GAS;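 also: secreted streptokinase activity via plasminogen activation per viability signal from cell pellet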
T1 sequence (P10520 whole entry): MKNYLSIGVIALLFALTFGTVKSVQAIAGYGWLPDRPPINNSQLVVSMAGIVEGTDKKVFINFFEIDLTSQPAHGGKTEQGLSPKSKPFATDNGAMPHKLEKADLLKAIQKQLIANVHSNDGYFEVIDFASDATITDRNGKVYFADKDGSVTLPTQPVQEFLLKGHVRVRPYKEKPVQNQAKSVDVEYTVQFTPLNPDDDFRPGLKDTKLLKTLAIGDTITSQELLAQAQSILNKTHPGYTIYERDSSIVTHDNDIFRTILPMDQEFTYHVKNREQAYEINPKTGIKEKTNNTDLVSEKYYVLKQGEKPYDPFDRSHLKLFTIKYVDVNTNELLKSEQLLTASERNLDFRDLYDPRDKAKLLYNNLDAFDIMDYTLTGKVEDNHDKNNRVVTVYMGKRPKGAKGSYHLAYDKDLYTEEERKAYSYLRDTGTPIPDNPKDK

[3] = target: T2, Serine/threonine-protein phosphatase (Candida dubliniensis (strain CD36 / CBS 7987 / NCPF 3949 / NRRLY-17841) (Yeast), UniProt B9W6M3); assay: blockers of CaCl2-induced CDRE-lacZ signaling – S. cerevisiae, luminescence, secondary, dose response (AID 2388); type: functional, cell-based;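 also: yeast reporter cells carrying a calcineurin-responsive lacZ construct stimulated with calcium chloride; luminescent beta-galactosidase reporter signal in whole cells rather than isolated phosphatase activity; potency for inhibition where a drop in reporter signal means calcineurin blockade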
T2 sequence (B9W6M3 whole entry): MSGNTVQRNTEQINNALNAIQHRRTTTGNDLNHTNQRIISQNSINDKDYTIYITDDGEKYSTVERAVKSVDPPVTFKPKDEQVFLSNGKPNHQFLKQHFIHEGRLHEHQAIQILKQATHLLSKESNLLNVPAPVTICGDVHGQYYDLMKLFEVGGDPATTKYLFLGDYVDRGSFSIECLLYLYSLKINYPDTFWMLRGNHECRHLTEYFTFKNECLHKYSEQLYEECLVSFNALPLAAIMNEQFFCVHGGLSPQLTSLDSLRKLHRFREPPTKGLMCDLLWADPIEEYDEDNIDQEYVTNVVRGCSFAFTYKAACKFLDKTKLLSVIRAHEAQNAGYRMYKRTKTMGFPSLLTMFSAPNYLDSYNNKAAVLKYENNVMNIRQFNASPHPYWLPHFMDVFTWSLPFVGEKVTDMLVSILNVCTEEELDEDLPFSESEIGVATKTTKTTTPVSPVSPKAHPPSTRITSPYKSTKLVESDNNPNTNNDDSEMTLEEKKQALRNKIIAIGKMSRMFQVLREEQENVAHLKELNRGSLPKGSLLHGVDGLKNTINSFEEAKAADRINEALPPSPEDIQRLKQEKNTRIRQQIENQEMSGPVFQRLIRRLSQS

[4] = target: ATP-dependent molecular chaperone HSP82 (Candida albicans (strain WO-1) (Yeast), UniProt C4YTQ8); assay: steroid-induced GRE reporter decrease in yeast – S. cerevisiae, luminescence, Hsp90 inhibitor project, dose response (AID 2400); type: functional, cell-based;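 also: beta-galactosidase luminescence from glucocorticoid response element reporter as proxy for Hsp90 function; inhibitor potency where signal loss means Hsp90 inhibition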
[5] = fluconazole-exposed Candida albicans growth modulators – fluorescence, retest, confirmation (AID 2467); type: functional, cell-based
[6] = Vero E6 cell cytotoxicity, dose response, cytotoxicity control for non-replicating M. tuberculosis project, secondary assay (AID 492998); type: functional, VeroE6; details: Vero C1008
Streptococcus = assay: GAS UMAA2166 growth inhibition – luminescence, BacTiterGlo, counter-screen for streptokinase expression inhibitor project, dose response (AID 1915); type: functional, organism-based;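 also: potency for reduction of bacterial viability or growth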
[7] = NIH-3T3 fibroblast cytotoxicity, dose response, cytotoxicity control, cell-based, fluorescence, Alamar Blue, secondary assay (AID 2327); type: functional;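 also: NIH-3T3 mouse fibroblasts cultured with fluconazole at 8 µg/mL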
HEK293 = assay: cells; type: functional, cell-based; details: Homo sapiens
[8] = target: FAD-linked sulfhydryl oxidase ALR (Homo sapiens, UniProt P55789); assay: ALR-catalysed DTT oxidation blockers – biochemical, H2O2 detection, luminescence, cherry-pick, dose response (AID 493248)
[9] = target: T3, Nuclear receptor subfamily 0 group B member 1 (Homo sapiens, UniProt P51843); assay: Luminescence-based cell-based high throughput dose response assay for inhibitors of the orphan nuclear receptor subfamily 0, group B, member 1 (DAX1; NR0B1). [Related pubchem assays (depositor defined):AID504766, AID504790]; type: functional
T3 sequence (P51843 whole entry): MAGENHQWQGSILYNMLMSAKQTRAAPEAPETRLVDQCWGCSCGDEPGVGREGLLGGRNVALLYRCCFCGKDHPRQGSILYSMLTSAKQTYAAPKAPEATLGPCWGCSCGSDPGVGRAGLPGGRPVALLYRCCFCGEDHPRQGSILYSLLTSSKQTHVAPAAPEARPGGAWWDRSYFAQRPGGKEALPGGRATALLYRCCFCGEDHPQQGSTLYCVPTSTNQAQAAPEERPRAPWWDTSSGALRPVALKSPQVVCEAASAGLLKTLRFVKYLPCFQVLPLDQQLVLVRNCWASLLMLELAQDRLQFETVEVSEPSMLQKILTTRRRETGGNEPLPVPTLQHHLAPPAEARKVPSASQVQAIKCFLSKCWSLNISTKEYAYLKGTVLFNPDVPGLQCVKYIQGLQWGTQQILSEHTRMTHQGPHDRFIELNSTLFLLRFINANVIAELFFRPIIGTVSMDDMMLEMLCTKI

Mu-type opioid receptor = Mu-type opioid receptor (Homo sapiens, UniProt P35372); assay: Counterscreen for agonists of heterodimerization of the mu 1 (OPRM1) and delta 1 (OPRD1) opioid receptors: Luminescence-based cell-based high throughput dose response assay to identify agonists of OPRM1 homodimerization.; type: functional;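 also: U2OS cells expressing OPRM1 and beta-arrestin as split beta-galactosidase partners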
[10] = target: Delta-type opioid receptor (Homo sapiens, UniProt P41143); assay: Counterscreen for agonists of heterodimerization of the mu 1 (OPRM1) and delta 1 (OPRD1) opioid receptors: Luminescence-based cell-based high throughput dose response assay to identify agonists of OPRD1 homodimerization. [Related pubchem assays (depositor defined):AID504326, AID504355, AID504692, AID504904, AID504905]; type: functional
[11] = target: 5-hydroxytryptamine receptor 5A (Homo sapiens, UniProt P47898); assay: Counterscreen for agonists of OPRM1-OPRD1 heterodimerization: luminescence-based cell-based high throughput dose response assay to identify agonists of 5-hydroxytryptamine (serotonin) 5A receptor (HTR5A). [Related pubchem assays (depositor defined):AID504326, AID504355, AID504692, AID504904, AID504905]; type: functional
[12] = target: T4, Microphthalmia-associated transcription factor (Homo sapiens, UniProt O75030); assay: reducers of TRPM1 reporter luminescence, concentration series – cell-based, SK-MEL-5, cherry-picked, set 3, MITF inhibitor project, dose response (AID 493073); type: functional;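 also: SK-MEL-5 melanoma cells with luciferase driven by the MITF target TRPM1 promoter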
T4 sequence (O75030 whole entry): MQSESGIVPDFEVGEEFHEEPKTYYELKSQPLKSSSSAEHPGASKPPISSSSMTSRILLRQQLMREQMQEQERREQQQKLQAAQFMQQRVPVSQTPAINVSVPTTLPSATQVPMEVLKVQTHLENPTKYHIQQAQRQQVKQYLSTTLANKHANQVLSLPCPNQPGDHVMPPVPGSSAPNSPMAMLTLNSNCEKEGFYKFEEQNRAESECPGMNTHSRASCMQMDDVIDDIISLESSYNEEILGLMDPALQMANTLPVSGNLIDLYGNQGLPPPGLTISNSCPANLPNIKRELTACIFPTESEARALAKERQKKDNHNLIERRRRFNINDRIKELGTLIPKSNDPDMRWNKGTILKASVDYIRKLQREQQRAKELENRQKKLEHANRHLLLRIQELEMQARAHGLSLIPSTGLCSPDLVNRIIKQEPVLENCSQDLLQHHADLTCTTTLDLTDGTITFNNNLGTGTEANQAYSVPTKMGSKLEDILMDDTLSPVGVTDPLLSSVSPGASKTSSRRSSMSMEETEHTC

[13] = MIN6 cell viability loss – mouse insulinoma, cytotoxicity control, dose response (AID 2122); type: functional;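 also: confirmatory high-throughput counterscreen run to flag cytotoxic compounds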
[14] = reduced cellular PGC1a acetyl-lysine signal – cell-based, cherry-picked samples, dose response (AID 720514); type: functional;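 also: potency may reflect raised or lowered acetylation signal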
[15] = viability loss in Vero cells – cytotoxicity control for Vif-APOBEC3G degradation inhibitor project, dose response (AID 1117358); type: functional; details: Vero
[16] = microbe, parasite or virus in culture; type: functional; details: Mycobacterium tuberculosis
[17] = viability of HCT116 lacking mutant beta-catenin – cell-based, human colon tumor, dose response (AID 1045); type: functional;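 also: HCT116 colon tumor cells with beta catenin knocked out; cells exposed to compound for 60 hours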
[18] = decrease of insulin promoter-GFP reporter – imaging, high-content screening, mouse beta cells (AID 1628); type: functional; details: MIN6
A-375 = assay: MITF: Counter assay: A375 proliferation Measured in Cell-Based System Using Plate Reader - 2084-03_Inhibitor_Dose_DryPowder_Activity. [Related pubchem assays (depositor defined):AID488944]; type: functional; details: Homo sapiens
[19] = viability of PTEN-deleted HCT116 cells – cell-based, HCT116 PTEN knockout, dose response (AID 1047); type: functional;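 also: HCT116 colon tumor cells with PTEN knocked out; cells exposed to compound for 60 hours before readout; potency for loss of cell viability measured by luminescence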
Genome polyprotein = Genome polyprotein (dengue virus type 2, UniProt P29990); assay: flavivirus cap methylation enzyme inhibition – biochemical, confirmation dose response, primary screen (AID 588689); type: functional
[20] = target: T5, Corticotropin-releasing factor receptor 2/Corticotropin-releasing factor-binding protein (Homo sapiens, UniProt P24387+Q13324); assay: activators of CRF receptor 2 with binding protein – uHTS hits, confirmation (AID 602473); type: functional; details: read-out: EC50_Mean
T5 sequence (Q13324 whole entry): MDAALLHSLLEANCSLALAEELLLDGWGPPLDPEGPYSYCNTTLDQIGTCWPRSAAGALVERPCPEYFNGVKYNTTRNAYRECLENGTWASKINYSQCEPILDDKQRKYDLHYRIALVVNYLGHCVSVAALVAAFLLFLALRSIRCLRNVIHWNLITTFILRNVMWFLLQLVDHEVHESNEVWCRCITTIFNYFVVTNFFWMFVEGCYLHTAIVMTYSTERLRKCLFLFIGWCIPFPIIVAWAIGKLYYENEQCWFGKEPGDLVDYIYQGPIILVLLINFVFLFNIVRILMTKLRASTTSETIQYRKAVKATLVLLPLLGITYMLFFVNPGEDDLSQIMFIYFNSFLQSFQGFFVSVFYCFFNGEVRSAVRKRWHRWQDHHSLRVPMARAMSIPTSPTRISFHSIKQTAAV
T5 sequence (P24387 whole entry): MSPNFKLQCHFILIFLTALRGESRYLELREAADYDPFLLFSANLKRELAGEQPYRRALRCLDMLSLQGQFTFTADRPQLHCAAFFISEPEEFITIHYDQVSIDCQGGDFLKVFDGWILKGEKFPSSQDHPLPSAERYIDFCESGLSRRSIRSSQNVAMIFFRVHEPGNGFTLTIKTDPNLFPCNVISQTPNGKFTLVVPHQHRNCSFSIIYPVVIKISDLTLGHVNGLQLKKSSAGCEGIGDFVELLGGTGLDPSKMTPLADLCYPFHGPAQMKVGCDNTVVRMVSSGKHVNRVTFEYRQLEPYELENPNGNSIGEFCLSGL

[21] = target: T5, Corticotropin-releasing factor receptor 2/Corticotropin-releasing factor-binding protein; assay: Dose Response confirmation of uHTS hits for small molecule antagonists of the CRF-binding protein and CRF-R2 receptor complex.; type: functional; details: read-out: IC50_Mean

ATP-dependent molecular chaperone HSP82, sequence (C4YTQ8 whole entry): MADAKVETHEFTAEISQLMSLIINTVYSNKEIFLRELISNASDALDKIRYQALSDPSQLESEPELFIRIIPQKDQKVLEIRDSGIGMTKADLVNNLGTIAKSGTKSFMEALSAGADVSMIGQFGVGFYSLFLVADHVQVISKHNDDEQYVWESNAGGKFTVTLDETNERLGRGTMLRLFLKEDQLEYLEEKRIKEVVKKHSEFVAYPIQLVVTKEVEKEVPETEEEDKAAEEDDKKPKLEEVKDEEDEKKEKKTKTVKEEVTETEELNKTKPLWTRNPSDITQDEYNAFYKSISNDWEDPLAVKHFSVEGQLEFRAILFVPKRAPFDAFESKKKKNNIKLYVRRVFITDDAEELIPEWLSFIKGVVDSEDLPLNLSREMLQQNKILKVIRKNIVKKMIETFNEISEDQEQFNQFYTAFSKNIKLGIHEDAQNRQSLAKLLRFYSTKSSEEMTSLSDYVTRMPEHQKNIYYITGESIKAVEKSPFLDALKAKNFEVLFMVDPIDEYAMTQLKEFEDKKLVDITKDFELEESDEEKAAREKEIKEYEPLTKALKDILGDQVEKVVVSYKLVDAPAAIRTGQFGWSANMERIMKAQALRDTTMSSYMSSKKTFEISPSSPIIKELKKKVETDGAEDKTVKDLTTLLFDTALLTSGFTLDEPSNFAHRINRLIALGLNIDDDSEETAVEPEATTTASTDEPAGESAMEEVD
Genome polyprotein, sequence (P29990 2492-3391 limits assumed): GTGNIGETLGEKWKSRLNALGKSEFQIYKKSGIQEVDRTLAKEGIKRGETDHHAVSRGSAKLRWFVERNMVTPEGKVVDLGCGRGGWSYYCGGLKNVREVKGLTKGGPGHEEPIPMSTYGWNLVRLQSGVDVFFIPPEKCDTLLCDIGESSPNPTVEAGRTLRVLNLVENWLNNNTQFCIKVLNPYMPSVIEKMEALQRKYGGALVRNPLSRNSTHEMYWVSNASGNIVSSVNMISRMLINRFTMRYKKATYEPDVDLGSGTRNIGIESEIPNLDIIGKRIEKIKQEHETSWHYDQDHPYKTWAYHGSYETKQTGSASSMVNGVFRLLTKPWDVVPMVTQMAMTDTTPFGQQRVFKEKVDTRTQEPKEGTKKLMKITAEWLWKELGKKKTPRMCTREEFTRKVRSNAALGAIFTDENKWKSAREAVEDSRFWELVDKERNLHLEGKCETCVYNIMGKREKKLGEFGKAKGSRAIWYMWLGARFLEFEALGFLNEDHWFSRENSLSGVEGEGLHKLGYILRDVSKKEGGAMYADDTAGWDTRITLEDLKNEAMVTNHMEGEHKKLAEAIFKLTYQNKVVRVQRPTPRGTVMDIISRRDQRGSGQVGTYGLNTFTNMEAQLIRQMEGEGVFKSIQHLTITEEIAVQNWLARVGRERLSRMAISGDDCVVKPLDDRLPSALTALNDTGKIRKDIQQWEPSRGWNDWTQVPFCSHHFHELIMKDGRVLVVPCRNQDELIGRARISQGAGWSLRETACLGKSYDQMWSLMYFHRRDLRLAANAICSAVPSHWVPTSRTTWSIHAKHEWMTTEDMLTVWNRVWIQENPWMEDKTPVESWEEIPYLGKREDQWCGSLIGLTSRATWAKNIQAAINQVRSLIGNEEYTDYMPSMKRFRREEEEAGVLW
5-hydroxytryptamine receptor 5A, sequence (P47898 whole entry): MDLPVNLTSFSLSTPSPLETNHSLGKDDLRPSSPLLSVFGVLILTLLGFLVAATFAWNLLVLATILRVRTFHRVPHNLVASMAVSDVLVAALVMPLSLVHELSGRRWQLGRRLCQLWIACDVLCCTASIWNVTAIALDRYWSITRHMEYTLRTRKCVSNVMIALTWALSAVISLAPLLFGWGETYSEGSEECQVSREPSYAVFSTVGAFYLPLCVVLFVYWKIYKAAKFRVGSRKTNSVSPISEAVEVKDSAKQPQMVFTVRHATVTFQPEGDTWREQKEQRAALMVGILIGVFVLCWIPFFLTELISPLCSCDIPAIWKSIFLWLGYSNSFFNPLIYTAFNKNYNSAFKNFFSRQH
Delta-type opioid receptor, sequence (P41143 whole entry): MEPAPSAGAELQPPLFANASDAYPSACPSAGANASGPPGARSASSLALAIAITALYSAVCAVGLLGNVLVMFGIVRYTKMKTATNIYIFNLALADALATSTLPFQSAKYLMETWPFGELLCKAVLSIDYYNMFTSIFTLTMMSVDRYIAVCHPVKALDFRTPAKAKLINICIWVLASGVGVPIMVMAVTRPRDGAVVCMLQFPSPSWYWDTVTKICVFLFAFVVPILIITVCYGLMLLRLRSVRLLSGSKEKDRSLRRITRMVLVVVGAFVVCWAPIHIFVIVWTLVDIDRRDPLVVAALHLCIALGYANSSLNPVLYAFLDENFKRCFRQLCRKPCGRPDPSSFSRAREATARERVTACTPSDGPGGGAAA
Mu-type opioid receptor, sequence (P35372 whole entry): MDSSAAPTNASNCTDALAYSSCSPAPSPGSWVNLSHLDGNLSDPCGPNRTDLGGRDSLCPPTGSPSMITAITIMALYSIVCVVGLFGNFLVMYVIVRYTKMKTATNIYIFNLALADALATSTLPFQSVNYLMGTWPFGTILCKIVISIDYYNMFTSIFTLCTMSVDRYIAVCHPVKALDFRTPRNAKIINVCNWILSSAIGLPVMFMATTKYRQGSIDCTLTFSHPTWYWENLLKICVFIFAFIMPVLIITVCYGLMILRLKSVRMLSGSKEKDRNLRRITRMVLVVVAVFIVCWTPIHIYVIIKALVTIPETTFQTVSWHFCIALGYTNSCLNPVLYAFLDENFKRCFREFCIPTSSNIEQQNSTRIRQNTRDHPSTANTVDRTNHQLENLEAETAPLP
FAD-linked sulfhydryl oxidase ALR, sequence (P55789 whole entry): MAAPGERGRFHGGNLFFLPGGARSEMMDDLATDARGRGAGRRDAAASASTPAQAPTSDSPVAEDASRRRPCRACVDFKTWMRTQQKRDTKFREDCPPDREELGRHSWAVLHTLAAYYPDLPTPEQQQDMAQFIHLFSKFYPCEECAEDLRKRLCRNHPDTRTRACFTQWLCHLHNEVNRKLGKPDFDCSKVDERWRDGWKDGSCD

SMILES: CCCn1nnnc1NC(=O)c1ccc2ccccc2c1
- EC50 [1]: 1.59 µM (active)
- IC50 (cells): 0.9 µM (active)
- CC50 [2]: 39.5 µM (active)
- EC50 (Streptokinase A): > 150 µM (not active)
- EC50 [3]: > 180 µM (inactive)
- EC50 [4]: 82.2 µM (active)
- EC50 [5]: 0.505 µM (active)
- CC50 [6]: > 20 µM (active)
- EC50 (Streptococcus): > 150 µM (not active)
- EC50 [7]: 121 µM (active)

SMILES: COc1ccc(Nc2[nH]nc(N)c2C(N)=O)cc1
- IC50 (HEK293): > 67.5 µM (inactive)
- AC50 [8]: 2.71 µM (active)
- IC50 [9]: > 67.5 µM (inactive)

SMILES: OCC1(CCc2ccccc2)CCN(Cc2cc(F)ccc2-n2cccn2)CC1
- EC50 (Mu-type opioid receptor): > 92.5 µM (inactive)
- EC50 [10]: > 92.5 µM (inactive)
- EC50 [11]: > 92.5 µM (inactive)

SMILES: COc1ccc(-c2cc(-c3ccccc3)c(C#N)c([S+](C)[O-])n2)cc1 (stereo unspecified)
- AC50 [12]: 11.8 µM (active)
- IC50 [13]: 2.76 µM (active)
- AC50 [14]: 4.89 µM (active)
- CC50 [15]: 31.4 µM (active)
- CC50 [16]: 23 µM (active)
- EC50 [17]: 2.12 µM (active)
- IC50 [18]: 2.05 µM (active)
- AC50 (A-375): 20.2 µM (active)
- EC50 [19]: 3.33 µM (active)

SMILES: COc1ccccc1/C=C1\SC(=S)N(NS(=O)(=O)c2ccccc2)C1=O
- EC50 [3]: > 180 µM (inactive)
- EC50 [4]: 18.2 µM (active)
- IC50 (Genome polyprotein): 36.2 µM (active)
- EC50 [5]: 0.94 µM (active)
- EC50 [7]: > 150 µM (inconclusive)

SMILES: C/C(CC(=O)Nc1ccc(Cl)cc1C(F)(F)F)=N\NC(=O)c1cccs1
- IC50 (HEK293): > 67.6 µM (inactive)
- IC50 [9]: > 67.6 µM (inactive)

SMILES: Cc1nc(-c2ccncc2)nc(NCCNc2ccc(C(F)(F)F)cn2)c1Cl
- IC50 (HEK293): > 67.5 µM (inactive)
- EC50 [20]: > 53 µM (inactive)
- IC50 [21]: > 47.1 µM (inactive)
- IC50 [9]: > 67.5 µM (inactive)

— ChEMBL document CHEMBL1201862, “PubChem BioAssay data set” (2004)
